One may read the pIC50 as −log10 of the IC50, conventionally taken in molar units.

Molecules are shown by their SMILES. pIC50: −log10 of the molar value.

Experiment [1] deals with T1, human protease activated receptor 1 (PAR1) (Homo sapiens, UniProt P25116).
T1 construct: the cell stably expresses the endogenous human PAR1 receptor; endogenous in cells; host or cells: recombinant HEK293-derived cell line; only the mitochondrial aequorin is recombinant
T1 sequence (P25116 22-425): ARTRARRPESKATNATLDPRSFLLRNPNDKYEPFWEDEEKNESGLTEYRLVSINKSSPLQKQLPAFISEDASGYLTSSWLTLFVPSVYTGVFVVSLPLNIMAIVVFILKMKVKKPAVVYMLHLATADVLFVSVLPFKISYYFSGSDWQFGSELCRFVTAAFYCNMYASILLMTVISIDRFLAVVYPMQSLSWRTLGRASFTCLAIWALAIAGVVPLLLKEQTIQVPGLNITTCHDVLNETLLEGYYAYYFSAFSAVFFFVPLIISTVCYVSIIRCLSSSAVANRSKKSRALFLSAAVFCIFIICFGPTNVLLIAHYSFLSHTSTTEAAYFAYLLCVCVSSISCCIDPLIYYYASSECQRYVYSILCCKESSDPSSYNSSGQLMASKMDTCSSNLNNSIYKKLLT
As to the kind of experiment: Cellular functional in vitro test (PAR1 test cell, aequorin luminescence). The class given is cell-based. Conditions: HEK293-derived PAR1 test cell; PAR1 agonist at EC50; calcium/aequorin luminescence. An excerpt: Cellular Functional in vitro Test
A recombinant cell line is used to identify […] of the human protease activated receptor 1 (PAR1) and to quantify the activity of the substances described herein. The cell is originally derived from a human embryonal kidney cell (HEK293; ATCC: American Type Culture Collection, Manassas, Va. 20108, U.S.A.). The test cell line constitutively expresses a modified form of the calcium-sensitive photoprotein aequorin which, after reconstitution with the cofactor coelenterazine, emits light when the free calcium concentration in the inner mitochondrial compartment is increased (Rizzuto R, Simpson A W, Brini M, Pozzan T.; Nature 1992, 358, 325-327). Additionally, the cell stably expresses the endogenous human PAR1 receptor and the endogenous purinergic receptor P2Y2. The resulting PAR1 test cell responds to stimulation of the endogenous PAR1 or P2Y2 receptor with an intracellular release of calcium ions, which can be quantified through the resulting aequorin luminescence with a suitable luminometer (Milligan G, Marshall F, Rees S, Trends in Pharmacological Sciences 1996, 17, 235-237).
For the testing of the substance specificity, the effect thereof after activation of the endogenous PAR1 receptor is compared with the effect after activation of the endogenous purinergic P2Y2 receptor which utilizes the same intracellular signal path.
Test procedure: The cells are plated out two days (48 hours) before the test in culture medium (DMEM F12, supplemented with 10% FCS, 2 mM glutamine, 20 mM HEPES, 1.4 mM pyruvate, 0.1 mg/ml gentamycin, 0.15% sodium bicarbonate; BioWhittaker Cat. # BE04-687Q; B-4800 Verviers, Belgium) in 384-well microtitre plates and kept in a cell incubator (96% atmospheric humidity, 5% v/v CO2, 37° C.). On the day of the test, the culture medium is replaced by a Tyrode's solution (in mM: 140 sodium chloride, 5 potassium chloride, 1 magnesium chloride, 2 calcium chloride, 20 glucose, 20 HEPES), which additionally contains the cofactor coelenterazine (25 μM) and glutathione (4 mM), and the microtitre plate is then incubated for a further 3-4 hours. The test substances are then pipetted onto the microtitre plate, and 5 minutes after the transfer of the test substances into the wells of the microtitre plate the plate is transferred into the luminometer, a PAR1 agonist concentration which corresponds to EC50 is added and the resulting light signal is immediately measured in the luminometer. To distinguish an antagonist substance action from a toxic action, the endogenous purinergic receptor is immediately subsequently activated with agonist (ATP, final concentration 10 μM) and the resulting light signal is measured.

The subject of the next experiment is platelet-rich plasma. As to the kind of experiment: Platelet aggregation in plasma (triggered by thrombin receptor agonist TRAP6, SFLLRN; turbidimetry according to Born). The class given is cell-based. Conditions: 10 min, human platelet-rich plasma, 10 min at 37° C. As to the method:
1.c) Platelet Aggregation in Plasma
Platelet aggregation is determined using blood from healthy volunteers of both genders, who had not received any thrombocyte aggregation-influencing medication for the last ten days. The blood is taken up into monovettes (Sarstedt, Nümbrecht, Germany) which contain, as anticoagulant, sodium citrate 3.8% (1 part citrate+9 parts blood). To obtain platelet-rich plasma, the citrated whole blood is centrifuged at 140 g for 20 min.
For the aggregation measurements, aliquots of the platelet-rich plasma with increasing concentrations of test substance are incubated at 37° C. for 10 min. Subsequently, aggregation is triggered by addition of a thrombin receptor agonist (TRAP6, SFLLRN) in an aggregometer and determined at 37° C. by means of the turbidimetry method according to Born (Born, G. V. R., Cross M. J., The Aggregation of Blood Platelets; J. Physiol. 1963, 168, 178-195). The SFLLRN concentration leading to maximum aggregation is, if appropriate, determined individually for each donor.
To calculate the inhibitory effect, the maximum increase in light transmission (amplitude of the aggregation curve in %) is determined within 5 minutes after addition of the agonist in the presence and absence of test substance, and the inhibition is calculated. The inhibition curves are used to calculate the concentration which inhibits aggregation by 50%.

Turning to `COCCc1noc(C2CC(c3ccc(OC(F)(F)F)cc3)CN(C(=O)N3CC[S+]([O-])CC3)C2)n1` (racemic) [Example 1, {3-[3-(2-Methoxyethyl)-1,2,4-oxadiazol-5-yl]-5-[4-(trifluoromethoxy)phenyl]piperidin-1-yl}-(oxidothiomorpholin-4-yl)methanone], in experiment [1], the pIC50 is 7.37. Regarding `O=C(N1CC[S+]([O-])CC1)N1CC(c2ccc(C(F)(F)F)cc2)CC(c2nc(C3CC3)no2)C1` (racemic) [Example 20, {3-(3-Cyclopropyl-1,2,4-oxadiazol-5-yl)-5-[4-(trifluoromethyl)phenyl]piperidin-1-yl}(1-oxidothio-morpholin-4-yl)methanone], the pIC50 in experiment [1] is 7.64. In the case of `COC1(c2noc(C3CC(c4ccc(CC(F)(F)F)cc4)CN(C(=O)N4CCS(=O)(=O)CC4)C3)n2)CC1` (racemic) [Example 61, (1,1-Dioxidothiomorpholin-4-yl){3-[3-(1-methoxycyclopropyl)-1,2,4-oxadiazol-5-yl]-5-[4-(2,2,2-trifluoroethyl)phenyl]piperidin-1-yl}methanone], the pIC50 in experiment [1] was 7.80. Consider `COCCc1noc(C2CC(c3ccc(OC(F)(F)F)cc3)CN(C(=O)N3CCS(=O)(=O)CC3)C2)n1` (single isomer, unassigned) [Example 8, (1,1-Dioxidothiomorpholin-4-yl){3-[3-(2-methoxyethyl)-1,2,4-oxadiazol-5-yl]-5-[4-(trifluoromethoxy)phenyl]piperidin-1-yl}methanone], for which the figures for the pIC50 (in experiment [1]; in the experiment with platelet-rich plasma) were 7.48 and 9.54, respectively. In the case of `O=C(N1CCS(=O)(=O)CC1)N1CC(c2ccc(OC(F)(F)F)cc2)CC(c2nc(C3CC3)no2)C1` (single isomer, unassigned) [Example 10, {3-(3-Cyclopropyl-1,2,4-oxadiazol-5-yl)-5-[4-(trifluoromethoxy)phenyl]piperidin-1-yl}(1,1-dioxidothiomorpholin-4-yl)methanone], the values for the pIC50 (in experiment [1]; in the experiment on platelet-rich plasma) were 8.10 and 9.31, respectively. Take `CCc1ccc(C2CC(c3nc(C4CC4)no3)CN(C(=O)N3CCS(=O)(=O)CC3)C2)cc1` (single isomer, unassigned) [Example 15, [3-(3-Cyclopropyl-1,2,4-oxadiazol-5-yl)-5-(4-ethylphenyl)piperidin-1-yl](1,1-dioxidothiomorpholin-4-yl)methanone]: the pIC50 in experiment [1] is 8.29. On the same count and under the same terms, under `CCOCCc1noc(C2CC(c3ccc(C(F)(F)F)cc3)CN(C(=O)N3CCS(=O)(=O)CC3)C2)n1` (single isomer, unassigned) [Example 31, (1,1-Dioxidothiomorpholin-4-yl){3-[3-(2-ethoxyethyl)-1,2,4-oxadiazol-5-yl]-5-[4-(trifluoromethyl)phenyl]piperidin-1-yl}methanone] stands 7.49. Take `CC(F)(F)c1ccc(C2CC(c3nc(C4CC4)no3)CN(C(=O)N3CC[S+]([O-])CC3)C2)cc1` (single isomer, unassigned) [Example 52, {3-(3-Cyclopropyl-1,2,4-oxadiazol-5-yl)-5-[4-(1,1-difluoroethyl)phenyl]piperidin-1-yl}-(1-oxido-thiomorpholin-4-yl)methanone]: the pIC50 in experiment [1] was 8.33; in the experiment with platelet-rich plasma it was 9.24. Take `CC(F)(F)c1ccc(C2CC(c3nc(C4CC4)no3)CN(C(=O)N3CCS(=O)(=O)CC3)C2)cc1` (single isomer, unassigned) [Example 54, {3-(3-Cyclopropyl-1,2,4-oxadiazol-5-yl)-5-[4-(1,1-difluoroethyl)phenyl]piperidin-1-yl}-(1,1-dioxidothiomorpholin-4-yl)methanone]: the pIC50 in experiment [1] is 8.37. Regarding `CCc1ccc(C2CC(c3nc(CCOC)no3)CN(C(=O)N3CCS(=O)(=O)CC3)C2)cc1` (stereo not shown) [Example 13, (1,1-Dioxidothiomorpholin-4-yl){3-(4-ethylphenyl)-5-[3-(2-methoxyethyl)-1,2,4-oxadiazol-5-yl]-piperidin-1-yl}methanone], the pIC50 with platelet-rich plasma was 9.77.

These data come from US8202862B2, “Substituted piperidines” (Bayer Intellectual Property GmbH, priority 2009, dated 2012).
